These results are taken from US8129355B2, “Ketone ligands for modulating the expression of exogenous genes via an ecdysone receptor complex” (priority 2002, dated 2012).

Molecules are shown by their SMILES. Where two headings read alike, the source gives them in different places.

This data set has as its target T1, GAL4 DBD-CfEcR(DEF)/VP16AD-MmRXRE (Choristoneura fumiferana, UniProt O77240).
T1 sequence (O77240 1-513): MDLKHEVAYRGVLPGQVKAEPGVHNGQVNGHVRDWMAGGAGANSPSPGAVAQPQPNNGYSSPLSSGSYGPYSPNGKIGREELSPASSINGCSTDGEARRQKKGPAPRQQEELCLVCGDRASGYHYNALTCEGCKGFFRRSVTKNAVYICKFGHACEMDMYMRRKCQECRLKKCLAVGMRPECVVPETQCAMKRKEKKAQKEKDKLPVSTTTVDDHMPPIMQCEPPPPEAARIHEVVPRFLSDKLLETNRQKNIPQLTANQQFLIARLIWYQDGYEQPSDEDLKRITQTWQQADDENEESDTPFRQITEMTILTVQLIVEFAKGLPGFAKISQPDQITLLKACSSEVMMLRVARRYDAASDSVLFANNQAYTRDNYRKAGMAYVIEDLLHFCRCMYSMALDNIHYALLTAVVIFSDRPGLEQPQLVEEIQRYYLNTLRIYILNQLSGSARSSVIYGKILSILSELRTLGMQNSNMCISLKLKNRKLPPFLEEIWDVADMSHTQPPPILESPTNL
Description: cell-based. As to conditions: for fold induction at 33 µM: CHO, read-out: Fold Induction Average, 13B3 Assay (33 μM); for 13B3 Rel Max FI: maximum fold induction at any concentration relative to that of GS-E ligand. The method, boiled down: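 Stable CHO clone 13B3 expressing GAL4 DBD-CfEcR(DEF) and VP16AD-mouse RXR(DE) with GAL4 RE-luciferase reporter. Ligands tested at 8 concentrations, 33–0.01 μM; luciferase read 48 h after treatment. Fold induction versus DMSO; BC50 from three-parameter logistic fit.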

`COc1cccc(C(=O)C2(NC(=O)c3cccc(OC)c3C)CCCCC2)c1` [Example 4]: the 50% effective concentration (EC50) stood at 3.46 µM, the fold induction at 33 µM was determined as 45 and the “13B3 Rel Max FI” value is reported as 0.64.

Take `COc1cccc(C(=O)NC2(C(=O)c3cccc(C)c3)CCCCC2)c1C` [Example 7]: the EC50 came out at 6.73 µM, the fold induction at 33 µM was found to be 3100 and the “13B3 Rel Max FI” value is given as 0.55.

As for `COc1cccc(C(=O)NC2(C(=O)c3cc(C)cc(C)c3)CCCC2)c1C` [Example 10], the concentration giving a half-maximal response (EC50) is 3.27 µM, the fold induction at 33 µM turned out to be 32700 and the “13B3 Rel Max FI” value turned out to be 0.71.

As for `COc1cccc(C(=O)NC2(C(=O)c3cc(C)cc(C)c3)CCCCC2)c1C` [Example 11], the response was half-maximal at 1.8 µM (EC50), the fold induction at 33 µM worked out at 94700 and the “13B3 Rel Max FI” value stood at 1.15.

Take `COc1cccc(C(=O)NC(C)(Cc2ccccc2)C(=O)c2cc(C)cc(C)c2)c1C` (centres unmarked) [Example 12]: the half-maximal effective concentration (EC50) is over 33 µM, the fold induction at 33 µM was determined as 72 and the “13B3 Rel Max FI” value is on record as 0.00.

Consider `COc1cccc(C(=O)NC2(C(=O)c3cc(C)cc(C)c3)CC2)c1C` [Example 13], for which the EC50 is over 33 µM, the fold induction at 33 µM worked out at 3 and the “13B3 Rel Max FI” value came to 0.00.

Turning to `COc1cccc(C(=O)NC2(C(=O)c3cc(C)cc(C)c3)CCC2)c1C` [Example 14], a half-maximal effect (EC50) was put at 6.6 µM, the fold induction at 33 µM is 1024 and the “13B3 Rel Max FI” value is recorded as 0.33.

As to `COc1cccc(C(=O)NC2(C(=O)c3ccc(C)cc3)CCCCC2)c1C` [Example 15], it took 4.11 µM to reach a half-maximal effect (EC50), the fold induction at 33 µM is 371 and the “13B3 Rel Max FI” value is 0.09.

Regarding `COc1cccc(C(=O)NC2(C(=O)c3ccc(F)c(C)c3)CCCC2)c1C` [Example 17], the EC50 is 4.51 µM, the fold induction at 33 µM came to 1190 and the “13B3 Rel Max FI” value was 0.01.

For the molecule `COc1cccc(C(=O)NC2(C(=O)c3ccc(F)c(C)c3)CCCCC2)c1C` [Example 18], the EC50 was 3.96 µM, the fold induction at 33 µM was 50200 and the “13B3 Rel Max FI” value was 0.29.

Consider `COc1cccc(C(=O)NC(C)(C(=O)c2cc(C)cc(C)c2)C(C)C)c1C` (centres unmarked) [Example 20], for which a half-maximal effect (EC50) was put at 4 µM and the “13B3 Rel Max FI” value came out at 0.92.

With `CCc1c(OC)cccc1C(=O)NC1(C(=O)c2ccccc2)CCCC1` [Example 21], the EC50 was over 33 µM, the fold induction at 33 µM was found to be 2 and the “13B3 Rel Max FI” value turned out to be 0.00.

Regarding `CCc1c(C(=O)NC2(C(=O)c3ccccc3)CCCC2)ccc2c1OCCO2` [Example 22], the EC50 was over 33 µM, the fold induction at 33 µM was determined as 4 and the “13B3 Rel Max FI” value was 0.00.

On to `COc1cccc(C(=O)NC2(C(=O)c3cccc(C)c3)CCOCC2)c1C` [Example 25], for which the EC50 was over 33 µM, the fold induction at 33 µM is 117 and the “13B3 Rel Max FI” value was determined as 0.00.

In the case of `COc1cccc(C(=O)NC2(C(=O)c3cccc(C)c3)CCSCC2)c1C` [Example 26], the EC50 was about 20 µM and the “13B3 Rel Max FI” value turned out to be 0.11.

Take `COc1cccc(C(=O)NC2(C(=O)c3cc(C)cc(C)c3)CCOCC2)c1C` [Example 27]: the 50% effective concentration (EC50) is about 20 µM, the fold induction at 33 µM amounted to 31600 and the “13B3 Rel Max FI” value amounted to 0.36.

Take `COc1cccc(C(=O)NC2(C(=O)c3cc(C)cc(C)c3)CCSCC2)c1C` [Example 28]: the EC50 worked out at 3.25 µM, the fold induction at 33 µM worked out at 3180 and the “13B3 Rel Max FI” value is on record as 0.74.

For `COc1cccc(C(=O)NC2(C(=O)c3cc(C)cc(C)c3)CCC3(CC2)OCCO3)c1C` [Example 29], the concentration for a half-maximal effect (EC50) is over 33 µM, the fold induction at 33 µM is 5 and the “13B3 Rel Max FI” value worked out at 0.00.

Consider `COc1ccccc1C(=O)C(C)(NC(=O)c1cccc(OC)c1C)C(C)C` (centres unmarked) [Example 30], for which the EC50 is over 33 µM, the fold induction at 33 µM amounted to 133 and the “13B3 Rel Max FI” value turned out to be 0.00.

As to `COc1cccc(C(=O)NC(C)(C(=O)c2cccc(C)c2)C(C)C)c1C` (centres unmarked) [Example 31], the EC50 was over 33 µM, the fold induction at 33 µM came to 1000 and the “13B3 Rel Max FI” value is listed as 0.08.

`COc1cccc(C(=O)C(C)(NC(=O)c2cccc(OC)c2C)C(C)C)c1` (centres unmarked) [Example 32]: the EC50 is over 33 µM, the fold induction at 33 µM worked out at 96 and the “13B3 Rel Max FI” value is recorded as 0.00.

As for `COc1cccc(C(=O)NC(C)(C(=O)c2ccc(C)cc2)C(C)C)c1C` (centres unmarked) [Example 33], the EC50 was over 33 µM, the fold induction at 33 µM was determined as 78 and the “13B3 Rel Max FI” value is 0.00.

On to `COc1cccc(C(=O)NC(C)(C(=O)c2ccccc2)C(C)C)c1C` (centres unmarked) [Example 34], for which the EC50 was over 33 µM, the fold induction at 33 µM is 6 and the “13B3 Rel Max FI” value was found to be 0.00.

For the molecule `CCC(CC)(NC(=O)c1cccc(OC)c1C)C(=O)c1ccccc1OC` [Example 37], the EC50 was over 33 µM, the fold induction at 33 µM turned out to be 885 and the “13B3 Rel Max FI” value is given as 0.08.

As for `CCC(CC)(NC(=O)c1cccc(OC)c1C)C(=O)c1ccc(F)cc1` [Example 38], the EC50 was over 33 µM, the fold induction at 33 µM came to 18 and the “13B3 Rel Max FI” value is given as 0.00.

Regarding `COc1ccccc1C(=O)C1(NC(=O)c2cccc(OC)c2C)CCCC1` [Example 40], the EC50 is about 15 µM, the fold induction at 33 µM came out at 2170 and the “13B3 Rel Max FI” value amounted to 0.58.

For `COc1cccc(C(=O)NC2(C(=O)c3ccc(F)cc3)CCCC2)c1C` [Example 42], the EC50 is over 33 µM, the fold induction at 33 µM is 4 and the “13B3 Rel Max FI” value is reported as 0.00.

As for `COc1cccc(C(=O)NC2(C(=O)c3ccccc3C)CCCCC2)c1C` [Example 44], the EC50 was over 33 µM, the fold induction at 33 µM is 36 and the “13B3 Rel Max FI” value is 0.00.

For the molecule `COc1ccccc1C(=O)C1(NC(=O)c2cccc(OC)c2C)CCCCC1` [Example 45], it took 1.35 µM to reach a half-maximal effect (EC50), the fold induction at 33 µM was 92900 and the “13B3 Rel Max FI” value came out at 0.67.

For `COc1ccc(C(=O)C2(NC(=O)c3cccc(OC)c3C)CCCCC2)cc1` [Example 46], the EC50 was over 33 µM, the fold induction at 33 µM was found to be 102 and the “13B3 Rel Max FI” value was 0.00.

Take `CCC(CC)(NC(=O)c1cccc(OC)c1C)C(=O)c1cccc(C)c1` [Example 48]: the EC50 is at least 33 µM, the fold induction at 33 µM worked out at 12 and the “13B3 Rel Max FI” value was 0.00.

With `CCC(CC)(NC(=O)c1cccc(OC)c1C)C(=O)c1cccc(OC)c1` [Example 49], the EC50 is over 33 µM and the “13B3 Rel Max FI” value came out at 0.00.

Consider `CCC(CC)(NC(=O)c1cccc(OC)c1C)C(=O)c1ccc(F)c(C)c1` [Example 50], for which the EC50 is over 33 µM, the fold induction at 33 µM was 1 and the “13B3 Rel Max FI” value stood at 0.00.

As for `CCC(CC)(NC(=O)c1cccc(OC)c1C)C(=O)c1cc(C)cc(C)c1` [Example 51], the EC50 is about 15 µM, the fold induction at 33 µM was 1380 and the “13B3 Rel Max FI” value is recorded as 0.64.

As to `COc1cccc(C(=O)NC(C)(CC(C)C)C(=O)c2cccc(C)c2)c1C` (centres unmarked) [Example 52], the concentration giving a half-maximal response (EC50) is over 33 µM, the fold induction at 33 µM amounted to 114 and the “13B3 Rel Max FI” value is reported as 0.00.

As to `COc1cccc(C(=O)C(C)(CC(C)C)NC(=O)c2cccc(OC)c2C)c1` (centres unmarked) [Example 53], the EC50 is over 33 µM and the “13B3 Rel Max FI” value is reported as 0.00.

Turning to `COc1cccc(C(=O)NC(C)(CC(C)C)C(=O)c2cc(C)cc(C)c2)c1C` (centres unmarked) [Example 55], the concentration for a half-maximal effect (EC50) came out at 3.42 µM, the fold induction at 33 µM was 24700 and the “13B3 Rel Max FI” value was determined as 0.21.

With `COc1cccc(C(=O)NC2(C(=O)c3ccc(F)cc3)CCCCC2)c1C` [Example 60], the EC50 is over 33 µM, the fold induction at 33 µM turned out to be 578 and the “13B3 Rel Max FI” value stood at 0.01.

As for `COc1cccc(C(=O)NC2(C(=O)c3cc(C)cc(C)c3)CCS(=O)(=O)CC2)c1C` [Example 62], the EC50 was over 33 µM, the fold induction at 33 µM turned out to be 3 and the “13B3 Rel Max FI” value is 0.00.

Regarding `COc1cccc(C(=O)NC(C)(C(=O)c2ccccc2C)C(C)C)c1C` (centres unmarked) [Example 63], the EC50 was over 33 µM, the fold induction at 33 µM came to 14 and the “13B3 Rel Max FI” value was 0.03.

For `COc1ccc(C(=O)C2(NC(=O)c3cccc(OC)c3C)CCCCC2)c(OC)n1` [Example 64], the concentration giving a half-maximal response (EC50) worked out at 3.79 µM, the fold induction at 33 µM was 599 and the “13B3 Rel Max FI” value was determined as 0.81.

For `COc1cc(C(=O)C2(NC(=O)c3cccc(OC)c3C)CCCC2)cc(OC)c1C` [Example 65], the “13B3 Rel Max FI” value worked out at 0.03. Also, the EC50 (read-out: 13B3 EC50, average, dose response, three-parameter logistic model) is about 20 µM. Moreover, for the setting “single dose 33 μM, RLU ligand treated / RLU DMSO treated cells”, the “Fold Induction Average, 13B3 Assay (33 μM)” value is 19.

As a reminder, the EC50 is the concentration at which the effect is half-maximal.
